COC1CCC2(CC1)NC(=O)C(c1cc(C)ccc1C)=C2O (stereo not given)
solubility (mole fraction)
Conditions | 288.15 K | 293.15 K | 298.15 K | 303.15 K | 308.15 K | 313.15 K | 318.15 K | 323.15 K | 328.15 K
in acetonitrile | 0.000317 | 0.000345 | 0.000375 | 0.000463 | 0.00057 | 0.000681 | 0.000791 | 0.000923 | 0.0011
in ethanol | 0.00255 | 0.00276 | 0.00302 | 0.00341 | 0.00392 | 0.00447 | 0.00513 | 0.00596 | 0.00681
in methanol | 0.00339 | 0.00379 | 0.00431 | 0.00473 | 0.00528 | 0.00589 | 0.00656 | 0.00735 | 0.00832
in n-propanol | 0.00252 | 0.00303 | 0.00348 | 0.00402 | 0.00453 | 0.00518 | 0.00603 | 0.00697 | 0.00799
in water | 1.96e-06 | 3.14e-06 | 4.08e-06 | 5.12e-06 | 6.15e-06 | 7.28e-06 | 8.43e-06 | 9.14e-06 | 1.05e-05

Reference: BigSolDB 2.1
